From patent US20240358692A1, “TREATMENT OF SCLERODERMA” (Aisa Pharma, Inc., priority 2023, published 2024)

Test system: participants with SSc-RP
Test: SHAQ - Visual Analog Scale - Breathing Problems
Type: in vivo, human
Set-up: Visual Analog Scale-Breathing Problems, In Clinic Visit (Day 12), Mean / Visual Analog Scale-Breathing Problems, In Clinic Visit (Day 12), Median / SHAQ Visual Analogue Scale - Breathing Problems, In-Clinic Visit (Day 12), Mean / SHAQ Visual Analogue Scale - Breathing Problems, In-Clinic Visit (Day 12), Median / SHAQ Visual Analogue Scale - Breathing Problems, Change from Baseline, Median: scale not given here
Details: for % improvement in Breathing: median, SHAQ, mITT Part A
Source text: The standard, validated, patient reported outcome measures tool for SSc patients, the Scleroderma Health Assessment Questionnaire (SHAQ), will be used to assess the participant qualify of life. Details are attached in the Appendix. The participant quality of life will be scored, and a disability index calculated for each questionnaire completed by the patient at Screening and each in-clinic visit. The absolute change in participant quality of life from baseline to the end of each dosing period will be calculated similar to frequency data as before.
The standard, validated, patient reported outcome measures tool for SSc patients, the SHAQ, was collected at the time points specified in the study schedules (FIG. 2 and FIGS. 4A and 4B) to assess the participant's quality of life. The SHAQ included a Raynaud's VAS that will also be reported separately.

[1] = Any Cilnidipine (N = 17), Day 12, PP Population, Part A, Subject 01-110 excluded
[2] = Cilnidipine 10 mg, SSc patients, PP, Part A
[3] = Cilnidipine 20 mg, SSc patients, PP, Part A
[4] = Modified ITT Population-Part A, Day 12, dose cilnidipine 10 mg, tadalafil 5 mg, alone or combined as labelled
[5] = Modified ITT Population-Part A, dose cilnidipine 20 mg, tadalafil 5 mg, alone or combined as labelled
[6] = Pooled Cilnidipine (N = 8), Day 12, PP Population, Part A
[7] = pooled Cilnidipine 10 mg and Cilnidipine 10 mg + Tadalafil 5 mg
[8] = pooled Cilnidipine 20 mg and Cilnidipine 20 mg + Tadalafil 5 mg
[9] = pooled cilnidipine 10 mg and 20 mg arms (combination: + tadalafil 5 mg)

## COCCOC(=O)C1=C(C)NC(C)=C(C(=O)OC/C=C/c2ccccc2)C1c1cccc([N+](=O)[O-])c1 (stereo not shown) [Cilnidipine]
[1]
  SHAQ Visual Analogue Scale - Breathing Problems, Change from Baseline, Mean (SD): 0.025 (1.2310)
  SHAQ Visual Analogue Scale - Breathing Problems, Change from Baseline, Median: 0.000
  SHAQ Visual Analogue Scale - Breathing Problems, In-Clinic Visit (Day 12), Mean (SD): 1.388 (2.2783)
  SHAQ Visual Analogue Scale - Breathing Problems, In-Clinic Visit (Day 12), Median: 0.300
  SHAQ Visual Analogue Scale - Breathing Problems, Percent Change from Baseline, Mean (SD): 50.12 (200.437) %
  SHAQ Visual Analogue Scale - Breathing Problems, Percent Change from Baseline, Median: −16.00%
[2]
  SHAQ VAS Breathing Problems, Change from Baseline, Max: 0.00
  SHAQ VAS Breathing Problems, Change from Baseline, Mean: −0.300
  SHAQ VAS Breathing Problems, Change from Baseline, Min: −1.20,
  SHAQ VAS Breathing Problems, Change from Baseline, Q1: −0.600,
  SHAQ VAS Breathing Problems, Change from Baseline, Q3: 0.000
  SHAQ VAS Breathing Problems, Day 12, Max: 6.30
  SHAQ VAS Breathing Problems, Day 12, Mean: 1.575
  SHAQ VAS Breathing Problems, Day 12, Min: 0.00,
  SHAQ VAS Breathing Problems, Day 12, Q1: 0.000,
  SHAQ VAS Breathing Problems, Percent Change from Baseline, Max: −16.0
  SHAQ VAS Breathing Problems, Percent Change from Baseline, Mean: −16.00
  SHAQ VAS Breathing Problems, Percent Change from Baseline, Median: −16.00
  SHAQ VAS Breathing Problems, Percent Change from Baseline, Min: −16.0,
  SHAQ VAS Breathing Problems, Percent Change from Baseline, Q1: −16.00,
  SHAQ VAS Breathing Problems, Percent Change from Baseline, Q3: −16.00
Cilnidipine 20 mg (n = 3)
  % improvement in Breathing: 67% (median)
[3]
  SHAQ VAS Breathing Problems, Change from Baseline, Max: 0.60
  SHAQ VAS Breathing Problems, Change from Baseline, Median: −0.250
  SHAQ VAS Breathing Problems, Change from Baseline, Min: −2.00,
  SHAQ VAS Breathing Problems, Change from Baseline, Q1: −1.400,
  SHAQ VAS Breathing Problems, Change from Baseline, Q3: 0.450
  SHAQ VAS Breathing Problems, Day 12, Max: 2.50
  SHAQ VAS Breathing Problems, Day 12, Mean: 0.850
  SHAQ VAS Breathing Problems, Day 12, Median: 0.450
  SHAQ VAS Breathing Problems, Day 12, Min: 0.00,
  SHAQ VAS Breathing Problems, Day 12, Q1: 0.200,
  SHAQ VAS Breathing Problems, Day 12, Q3: 1.500
  SHAQ VAS Breathing Problems, Percent Change from Baseline, Max: 150.0
  SHAQ VAS Breathing Problems, Percent Change from Baseline, Min: −100.0,
  SHAQ VAS Breathing Problems, Percent Change from Baseline, Q1: −83.33,
  SHAQ VAS Breathing Problems, Percent Change from Baseline, Q3: 90.79
[4]
  Visual Analog Scale-Breathing Problems, Change from Baseline, Mean: −0.300
  Visual Analog Scale-Breathing Problems, Change from Baseline, Median: 0.000
  Visual Analog Scale-Breathing Problems, Percent Change from Baseline, Mean: −16.00%
  Visual Analog Scale-Breathing Problems, Percent Change from Baseline, Median: −16.00%
Modified ITT Population-Part A, Day 12, dose cilnidipine 20 mg, tadalafil 5 mg, alone or combined as labelled
  Visual Analog Scale-Breathing Problems, Change from Baseline, Median: −0.800
Modified ITT Population-Part A, dose cilnidipine 10 mg, tadalafil 5 mg, alone or combined as labelled
  Visual Analog Scale-Breathing Problems, In Clinic Visit (Day 12), Median: 0.000
[5]
  Visual Analog Scale-Breathing Problems, In Clinic Visit (Day 12), Mean: 0.300
  Visual Analog Scale-Breathing Problems, In Clinic Visit (Day 12), Median: 0.400
Pooled Cilnidipine 20 mg and Cilnidipine 20 mg + Tadalafil 5 mg (N = 8), Day 12, PP Population, Part A
  SHAQ Visual Analogue Scale - Breathing Problems, In-Clinic Visit (Day 12), Mean: 1.400
[6]
  SHAQ Visual Analogue Scale - Breathing Problems, Change from Baseline, Mean (SD): −0.388 (0.8725)
  SHAQ Visual Analogue Scale - Breathing Problems, In-Clinic Visit (Day 12), Mean (SD): 1.213 (2.2229)
  SHAQ Visual Analogue Scale - Breathing Problems, In-Clinic Visit (Day 12), Median: 0.200
  SHAQ Visual Analogue Scale - Breathing Problems, Percent Change from Baseline, Mean (SD): −0.22 (97.721) %
Pooled Cilnidipine (n = 7)
  % improvement in Breathing: 41% (median)
Pooled cilnidipine (n=4)
  % Δ from baseline, VAS Breathing mean: −8.2%
[7]
  VAS Breathing Problems Change from Baseline Max: 1.00
  VAS Breathing Problems Change from Baseline Mean: −0.175
  VAS Breathing Problems Change from Baseline Median: 0.000
  VAS Breathing Problems Change from Baseline Min: −1.20
  VAS Breathing Problems Change from Baseline Q1: −0.600
  VAS Breathing Problems Change from Baseline Q3: 0.000
  VAS Breathing Problems Day 12 Max: 6.30
  VAS Breathing Problems Day 12 Median: 0.000
  VAS Breathing Problems Day 12 Min: 0.00
  VAS Breathing Problems Day 12 Q1: 0.000
  VAS Breathing Problems Day 12 Q3: 2.350
  VAS Breathing Problems Percent Change from Baseline Max: 38.5%
  VAS Breathing Problems Percent Change from Baseline Mean: −26.05%
  VAS Breathing Problems Percent Change from Baseline Median: −21.33%
  VAS Breathing Problems Percent Change from Baseline Min: −100.0%
  VAS Breathing Problems Percent Change from Baseline Q1: −63.33%
  VAS Breathing Problems Percent Change from Baseline Q3: 11.23%
[8]
  VAS Breathing Problems Change from Baseline Max: 3.70
  VAS Breathing Problems Change from Baseline Median: 0.000
  VAS Breathing Problems Change from Baseline Min: −2.00
  VAS Breathing Problems Change from Baseline Q1: −0.800
  VAS Breathing Problems Change from Baseline Q3: 0.600
  VAS Breathing Problems Day 12 Max: 6.90
  VAS Breathing Problems Day 12 Median: 0.400
  VAS Breathing Problems Day 12 Min: 0.00
  VAS Breathing Problems Day 12 Q1: 0.000
  VAS Breathing Problems Day 12 Q3: 0.700
  VAS Breathing Problems Percent Change from Baseline Max: 600.0%
  VAS Breathing Problems Percent Change from Baseline Min: −100.0%
  VAS Breathing Problems Percent Change from Baseline Q1: −75.00%
  VAS Breathing Problems Percent Change from Baseline Q3: 150.00%
[9]
  VAS Breathing Problems Change from Baseline Max: 0.30
  VAS Breathing Problems Change from Baseline Median: 0.000
  VAS Breathing Problems Change from Baseline Min: −2.00
  VAS Breathing Problems Change from Baseline Q1: −1.200
  VAS Breathing Problems Change from Baseline Q3: 0.000
  VAS Breathing Problems Day 12 Max: 6.30
  VAS Breathing Problems Day 12 Median: 0.000
  VAS Breathing Problems Day 12 Min: 0.00
  VAS Breathing Problems Day 12 Q1: 0.000
  VAS Breathing Problems Day 12 Q3: 0.500
  VAS Breathing Problems Percent Change from Baseline Max: 150.0%
